# Source: the supplement of paper PMC11451515
# System: SEM cells
# Assay: cell viability relative to DMSO control; higher = less cytotoxic
# Settings: 48 h
# Method in brief: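 NOMO1 or SEM (500 cells/well) or P12-Ichikawa (1000 cells/well) leukemia cells were adapted for at least four passages in each medium. They were seeded in 1536-well plates (5 μl) and pin-dosed with library compounds in DMSO over an 11-point threefold series, 47 μM to 0.79 nM. CellTiter-Glo One luminescence was read after 48 h at 37°C. Viability is the per-plate percentage relative to DMSO wells, with cell-free wells as background.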
# [1] = HPLM + 10% dialyzed FBS, 0.000781 µM
# [2] = HPLM + 10% dialyzed FBS, 0.00234 µM
# [3] = HPLM + 10% dialyzed FBS, 0.00702 µM
# [4] = HPLM + 10% dialyzed FBS, 0.0211 µM
# [5] = HPLM + 10% dialyzed FBS, 0.0632 µM
# [6] = HPLM + 10% dialyzed FBS, 0.19 µM
# [7] = HPLM + 10% dialyzed FBS, 0.569 µM
# [8] = HPLM + 10% dialyzed FBS, 1.71 µM
# [9] = HPLM + 10% dialyzed FBS, 5.12 µM
# [10] = HPLM + 10% dialyzed FBS, 15.4 µM
# [11] = HPLM + 10% dialyzed FBS, 46.1 µM
# [12] = RPMI 5 mM glucose + 10% FBS, 0.000781 µM
# [13] = RPMI 5 mM glucose + 10% FBS, 0.00234 µM
# [14] = RPMI 5 mM glucose + 10% FBS, 0.00702 µM
# [15] = RPMI 5 mM glucose + 10% FBS, 0.0211 µM
# [16] = RPMI 5 mM glucose + 10% FBS, 0.0632 µM
# [17] = RPMI 5 mM glucose + 10% FBS, 0.19 µM
# [18] = RPMI 5 mM glucose + 10% FBS, 0.569 µM
# [19] = RPMI 5 mM glucose + 10% FBS, 1.71 µM
# [20] = RPMI 5 mM glucose + 10% FBS, 5.12 µM
# [21] = RPMI 5 mM glucose + 10% FBS, 15.4 µM
# [22] = RPMI 5 mM glucose + 10% FBS, 46.1 µM
# [23] = RPMI 5 mM glucose + 10% dialyzed FBS, 0.000781 µM
# [24] = RPMI 5 mM glucose + 10% dialyzed FBS, 0.00234 µM
# [25] = RPMI 5 mM glucose + 10% dialyzed FBS, 0.00702 µM
# [26] = RPMI 5 mM glucose + 10% dialyzed FBS, 0.0211 µM
# [27] = RPMI 5 mM glucose + 10% dialyzed FBS, 0.0632 µM
# [28] = RPMI 5 mM glucose + 10% dialyzed FBS, 0.19 µM
# [29] = RPMI 5 mM glucose + 10% dialyzed FBS, 0.569 µM
# [30] = RPMI 5 mM glucose + 10% dialyzed FBS, 1.71 µM
# [31] = RPMI 5 mM glucose + 10% dialyzed FBS, 5.12 µM
# [32] = RPMI 5 mM glucose + 10% dialyzed FBS, 15.4 µM
# [33] = RPMI 5 mM glucose + 10% dialyzed FBS, 46.1 µM
SMILES,cell viability [1] [%],cell viability [2] [%],cell viability [3] [%],cell viability [4] [%],cell viability [5] [%],cell viability [6] [%],cell viability [7] [%],cell viability [8] [%],cell viability [9] [%],cell viability [10] [%],cell viability [11] [%],cell viability [12] [%],cell viability [13] [%],cell viability [14] [%],cell viability [15] [%],cell viability [16] [%],cell viability [17] [%],cell viability [18] [%],cell viability [19] [%],cell viability [20] [%],cell viability [21] [%],cell viability [22] [%],cell viability [23] [%],cell viability [24] [%],cell viability [25] [%],cell viability [26] [%],cell viability [27] [%],cell viability [28] [%],cell viability [29] [%],cell viability [30] [%],cell viability [31] [%],cell viability [32] [%],cell viability [33] [%]
NC(=O)c1cnc(N[C@@H]2CCCC[C@@H]2N)nc1Nc1cccc(-n2nccn2)c1,105,103,112,111,130,120,110,123,96.5,44.3,11.6,84.8,101,125,135,142,103,125,123,107,40.3,10.7,122,120,122,146,162,131,148,129,124,58.3,34.4
OC(=O)C1=CC=C(NC2=NC3=C(C\N=C(/C4=CC(=CC=C34)Cl)C5=C(F)C=CC=C5F)C=N2)C=C1,88.5,98.5,87.5,97.9,101,96,114,65.8,59.7,36.9,40.3,96,93,113,99.9,109,91,109,60.2,37.3,28.4,23.2,88.6,98.5,86,105,90.8,95.7,107,58.6,39,28.4,32.2
Cc1cc(OCCCc2c(C(=O)O)n(Cc3cccnc3)c3c(-c4c(COc5ccc(N6CCN([S+](C)(=O)[O-])CC6)cc5)nn(C)c4C)cccc23)cc(C)c1Cl,102,94.1,105,101,89.4,91.8,100,93.3,84.9,81.5,62.2,112,116,133,106,105,113,112,96.9,111,91.2,67.4,86.7,94.5,96.1,104,102,110,90.7,91.7,89.8,76.4,53.1
COc1ccc(C[C@@H](C)[C@@H](C)Cc2ccc(OC)c(OC)c2)cc1OC,73.5,93.2,85.2,92.7,96,94.9,91.8,83.2,19,16.3,8.54,80.6,104,102,111,106,120,93.3,82.4,18.7,16.7,4.5,76.3,97.7,88.9,91.7,88.9,83.7,81.1,74,18.3,14.9,4
C=C(C)[C@@H]1CC[C@]2(C(=O)O)CC[C@]3(C)[C@H](CC[C@@H]4[C@@]5(C)CC[C@H](O)C(C)(C)[C@@H]5CC[C@]43C)[C@@H]12,,,,,,,,,,,,115,116,134,129,140,52.4,128,123,42.7,112,107,,,,,,,,,,,
COC1=NC(=NC(=C1N\C2=N\CCN2)Cl)C,71.4,88.7,47.6,91.8,99.9,94.1,114,102,44.4,108,100,81,79.3,45,84,79.6,83.5,106,81.9,34.1,103,99.2,74.6,80,46.6,102,104,104,101,101,49.6,98.7,113
CC(C)[C@@H](N(CCCN)C(=O)C1=CC=C(C)C=C1)C/2=N/C3=CC(=CC=C3C(=O)N2CC4=CC=CC=C4)Cl,84.5,21,20.5,19.5,16,20.4,19.5,20.2,21.9,21.2,21.9,103,16.5,14.8,14,15.9,15,12.3,13.7,16.8,16.2,11.6,80,19.8,16.2,15.7,16.4,14.4,17.5,14.8,16.4,17.2,13.2
CCCCn1c(=O)n(Cc2ccccc2F)c(=O)c2nc(Cc3ccc(NC(C)=O)cc3)[nH]c21,101,98.7,87.6,109,104,84.9,89.8,97,98.2,81.1,93.7,101,102,105,89.5,90.3,86.9,88.1,97.6,92.1,96.1,99.5,92.9,91.3,98.7,81.5,110,85.5,85,99,97.3,90.9,91.8
COc1cccc2cc(-c3nc(C4CCC(C(=O)O)CC4)n4ncnc(N)c34)[nH]c12 (centres undefined),118,132,124,107,107,101,74.7,36.2,28.2,22.6,16.4,,,,,,,,,,,,111,133,118,114,96,99.7,89.3,52.6,31.5,22.2,15.8
O=C(NCC[S+](=O)([O-])c1ccc(C(F)(F)F)cn1)c1ccc(Cl)cc1,115,126,107,117,111,114,103,106,101,104,107,94.5,111,89.7,96.7,86.8,104,99.2,81,80.6,109,87.1,,,,,,,,,,,
COC1=CC2=NC=CC(=C2C=C1)OC3=CN=C(NC(=O)C/4=C(C)/N(CC(C)(C)O)N(C4=O)C5=CC=CC=C5)C=C3,82.3,84.7,63.1,83.6,89.4,86.1,79.1,52.1,32.7,36.4,31,108,96.2,91.6,108,103,99,82,60.9,29.3,36,31,74.1,82.1,76.7,77.8,79.4,80,60.5,50.3,32.8,33.2,27.4
CN(C)c1ccc(O)c2c1C[C@H]1C[C@H]3[C@H](N(C)C)C(O)=C(C(N)=O)C(=O)[C@@]3(O)C(O)=C1C2=O,97.4,98.3,93.9,108,107,103,91.9,104,104,107,118,98.3,103,93.8,96.4,114,108,105,110,103,93.5,106,106,119,106,106,105,106,115,122,114,107,104
CC\1=C/C=C\C=[N]1[Pt](N)(Cl)Cl,82,79.2,91.4,96.5,102,84.1,89.5,89,98.1,83.6,85.1,99.2,119,126,108,119,124,114,109,110,120,58,80.5,90.5,97.1,100,98.1,91.4,87.3,83,91.5,79.5,55.9
CC(N[C@H]1C[C@@H]1c1ccccc1)c1ccc2c(c1)OCCO2 (some centres undefined),111,135,116,122,110,122,126,126,141,116,109,99.3,95.1,94.7,97.7,107,100,108,110,107,98.4,93.5,121,123,100,121,110,134,138,111,119,119,92.6
CC1(C)O[C@@H]2C[C@H]3[C@@H]4CCC5=CC(=O)C=C[C@]5(C)[C@@]4(F)[C@@H](O)C[C@]3(C)[C@]2(C(=O)CO)O1,74.9,83.6,109,50.6,91.2,83.5,6.87,30.7,14.9,14.2,26.3,76.9,97,103,61.7,78.3,79.3,7.13,22.6,45.9,17.7,30.4,73.1,82.4,109,96.4,101,75.7,7.45,20.3,47.6,11.4,19.8
CC/C(=C(/c1ccc(O)cc1)c1ccc(OCCNC)cc1)c1ccccc1,61.4,99.5,91.2,102,103,115,101,96.7,65.6,59.5,26.1,66.8,102,108,112,107,109,102,94.8,65.7,47.8,25.9,53.5,106,88.3,104,95.8,123,97.6,97.6,69.5,43.5,38
